The text below walks through data of patent publication US8399465B2, “Compounds with two fused bicyclic heteroaryl moieties as modulators of leukotriene A4 hydrolase” (Janssen Pharmaceutica NV, priority 2009, dated 2013).

What is called pIC50 is the negative decadic logarithm of the IC50, by convention in mol/L.

Experiment [1] deals with ex vivo calcium ionophore-stimulated LTB4 production in whole blood. Nature of the experiment: Murine arachidonic acid-induced inflammation model: ex vivo stimulated LTB4 production in blood. Set-up: species or system Balb/c mice. As to conditions: Mus musculus; 30 mg/kg oral gavage; blood diluted 1:1, A23187 stimulated ex vivo; percent inhibition of LTB4 production; read-out: % Inh. LTB4. The method, then:
(§1) Assay 3: Murine Arachidonic Acid-Induced Inflammation Model
(§2) LTA4H inhibitor compounds of the present invention were dissolved in 20% cyclodextran/H2O at a concentration of 3 mg/mL. The solutions were administered by oral gavage to female Balb/c mice weighing approximately 20 grams each (0.2 mL per mouse, 30 mg of LTA4H inhibitor compound per kg). Sixty minutes after being administered an LTA4 inhibitor, each mouse received topical application of 20 μL of arachidonic acid (100 mg/mL in acetone) to the left ear and 20 μL of acetone only to the right ear. After 3 h, the mice were sacrificed, blood was withdrawn in heparinized syringes, and 8 mm ear biopsies were taken. Ear biopsies were weighed to determine edema and then frozen at −80° C. until needed for determination of neutrophil influx.
The microtiter plate contents were incubated for 30 min at 37° C. in a humidified incubator. The reaction was terminated by centrifugation (833×g, 10 min at 4° C.). Supernatants were analyzed for LTB4 by a commercially available enzyme-linked immunoassay (Cayman Chemical Co.) in accordance with the manufacturer's instructions. The percent inhibition of ex vivo stimulated LTB4 production (% Inh. LTB4) was determined by comparison to animals treated identically except that the solution administered by oral gavage was devoid of inhibitor compound.

The test system of experiment [2] is arachidonic acid-induced neutrophil influx in murine ear tissue. Nature of the experiment: Murine arachidonic acid-induced inflammation model: neutrophil influx (myeloperoxidase) in ear. The class given is in vivo, Balb/c mice. As to conditions: Mus musculus; 30 mg/kg oral gavage, 60 min before topical arachidonic acid, ear biopsy after 3 h; percent inhibition of neutrophil influx; read-out: % Inh. MPO. The method, then:
as §1, §2
Neutrophil influx was quantified by measuring the activity of myeloperoxidase (MPO), a neutrophil-specific enzyme. […] Debris was removed by centrifugation at 14000×g for 10 min. […] The microtiter plate contents were held at room temperature until the sample with the highest concentration of MPO reached an absorbance value of 0.4 at 650 nm. The reaction was stopped by addition of 50 μL 1 M H2SO4 to each sample well, and the myeloperoxidase activity in each sample was determined from the absorbance at […]. The background value from the right ear, treated only with acetone, was subtracted from that for the left ear, treated with arachidonic acid in acetone, for each animal. The percent inhibition of neutrophil influx (% Inh. MPO) by compounds of the invention was determined by comparison to animals treated identically, except that the solution administered by oral gavage was devoid of inhibitor compound. All compounds were assayed in their free base form.

In experiment [3] the target is T1, recombinant human LTA4 hydrolase (rhLTA4H) (Homo sapiens, UniProt P09960).
T1 construct: made in house; host or cells: Spodoptera frugiperda (Sf-9) cells, baculovirus (pFastBac1)
T1 sequence (P09960 1-611): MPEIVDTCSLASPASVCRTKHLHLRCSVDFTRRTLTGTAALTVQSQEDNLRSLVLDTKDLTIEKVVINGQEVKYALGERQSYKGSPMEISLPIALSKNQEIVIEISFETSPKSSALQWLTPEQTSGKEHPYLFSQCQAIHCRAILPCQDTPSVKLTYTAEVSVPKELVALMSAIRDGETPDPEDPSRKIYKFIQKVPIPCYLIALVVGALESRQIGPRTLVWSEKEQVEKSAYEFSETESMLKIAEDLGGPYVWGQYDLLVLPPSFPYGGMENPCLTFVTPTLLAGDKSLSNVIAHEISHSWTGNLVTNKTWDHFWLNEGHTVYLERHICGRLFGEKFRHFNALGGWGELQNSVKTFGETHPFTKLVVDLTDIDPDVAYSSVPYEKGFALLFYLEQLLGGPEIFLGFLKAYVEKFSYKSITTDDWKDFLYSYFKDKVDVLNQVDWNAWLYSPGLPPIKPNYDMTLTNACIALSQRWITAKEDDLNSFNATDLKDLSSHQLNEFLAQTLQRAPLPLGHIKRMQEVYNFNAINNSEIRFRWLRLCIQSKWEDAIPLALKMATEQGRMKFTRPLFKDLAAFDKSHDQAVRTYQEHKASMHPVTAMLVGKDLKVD
In words: Recombinant human LTA4 hydrolase assay for LTA4 hydrolase inhibitor activity. The following applies: rhLTA4H, LTB4 by immunoassay; single determination or average of two or more; mark after value = form tested: ′ free base, ″ hydrochloride, ^ formate; read-out: IC50. The class given is biochemical. In short, it runs like this:
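LTB4 formation, measured by enzyme immunoassay, was the read-out. The enzyme, recombinant human LTA4H expressed in Sf-9 insect cells (10 ng per reaction), was exposed to compound for 10 min at room temperature before hydrolysed-ester LTA4 substrate was added for 30 min. Enzyme-free negatives were included.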

The test system of experiment [4] is LTB4 production in murine blood (LTA4H). In words: LTB4 production by calcium ionophore-stimulated murine blood for LTA4H inhibitor activity. As to conditions: Mus musculus; murine blood diluted 1 in 15, A23187 stimulated; single determination or average; mark after value = form tested: ′ free base, ″ hydrochloride, ^ formate; read-out: IC50. The class given is cell-based, CD-1 mice. In short, it runs like this: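 LTB4 was measured by ELISA in supernatants after calcium ionophore A23187 stimulation (final 7 μg/mL, 30 min, 37° C) of CD-1 mouse blood collected on heparin. Compound was preincubated with the blood for 15 min beforehand. Values come from one determination or average several.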

pIC50: −log10 of the molar value. Where a name gives a salt, the structure may show the parent alone.

Take `CC(=O)N1C[C@H]2CC[C@@H](C1)N2Cc1cc2cc(Oc3nc4ncccc4s3)ccc2o1` [Example 93, meso-1-{8-[5-(Thiazolo[4,5-b]pyridin-2-yloxy)-benzofuran-2-ylmethyl]-3,8-diaza-bicyclo[3.2.1]oct-3-yl}-ethanone]: the results for the inhibition at 30 mg/kg in experiment [1] and in experiment [2] were 85% and 87%, respectively. The pIC50 in experiment [3] is 8.52; in experiment [4] it was 7.64.

Take `CC(=O)N1CC2CN(Cc3cc4cc(Oc5nc6ncccc6s5)ccc4o3)CC2C1` (centres unmarked) [Example 90, 1-{5-[5-(Thiazolo[4,5-b]pyridin-2-yloxy)-benzofuran-2-ylmethyl]-hexahydro-pyrrolo[3,4-c]pyrrol-2-yl}-ethanone]: the figures for the inhibition at 30 mg/kg in experiment [1] and in experiment [2] were 61% and 50%, respectively. For the same compound, the pIC50 in experiment [3] is 7.46; in experiment [4], 7.66.

For the compound `OCC1CCN(Cc2coc3cc(Oc4nc5ncccc5s4)ccc23)CC1` [Example 269, {1-[6-(Thiazolo[4,5-b]pyridin-2-yloxy)-benzofuran-3-ylmethyl]-piperidin-4-yl}-methanol], the inhibition at 30 mg/kg was 74% in experiment [1] and 92% in experiment [2]. The pIC50 in experiment [3] is 8.40; in experiment [4] it was 7.92.

Regarding `CC(=O)N1C[C@@H]2C[C@H]1CN2C(=O)c1coc2cc(Oc3nc4ncccc4s3)ccc12` [Example 371, (1S,4S)-1-{5-[6-(Thiazolo[4,5-b]pyridin-2-yloxy)-benzofuran-3-carbonyl]-2,5-diaza-bicyclo[2.2.1]hept-2-yl}-ethanone], the inhibition at 30 mg/kg in experiment [1] worked out at 54%; in experiment [2], 82%. Further, the results for the pIC50 in experiment [3] and in experiment [4] were 7.60 and 7.08, respectively.

For the compound `O=C(O)C1CCN(Cc2coc3cc(Oc4nc5ncccc5s4)ccc23)CC1` [Example 249, 1-[6-(Thiazolo[4,5-b]pyridin-2-yloxy)-benzofuran-3-ylmethyl]-piperidine-4-carboxylic acid], the values for the pIC50 in experiment [3] and in experiment [4] were 7.92 and 7.27, respectively.

Regarding `c1ccc2sc(Oc3ccc4c(CN5CCOCC5)coc4c3)nc2c1` [Example 165, 2-(3-Morpholin-4-ylmethyl-benzofuran-6-yloxy)-benzothiazole], the pIC50 in experiment [3] is 7.02; in experiment [4], 6.08.

For `NC(=O)C1CCN(Cc2cc3cc(Oc4nc5ncccc5s4)ccc3o2)CC1` [Example 88, 1-[5-(Thiazolo[4,5-b]pyridin-2-yloxy)-benzofuran-2-ylmethyl]-piperidine-4-carboxylic acid amide], the pIC50 in experiment [3] was 7.96; in experiment [4] it was 6.49.

Turning to `CC(=O)N[C@H]1C[C@H]2CC[C@@H](C1)N2Cc1cc2cc(Oc3nc4c(F)cccc4s3)ccc2o1` [Example 85, meso-endo-N-{8-[5-(4-Fluoro-benzothiazol-2-yloxy)-benzofuran-2-ylmethyl]-8-aza-bicyclo[3.2.1]oct-3-yl}-acetamide], the pIC50 in experiment [3] was 7.77; in experiment [4], 6.68.

As for `CS(=O)(=O)N1CCCN(Cc2coc3cc(Oc4nc5ncccc5s4)ccc23)CC1` [Example 247, 2-[3-(4-Methanesulfonyl-[1,4]diazepan-1-ylmethyl)-benzofuran-6-yloxy]-thiazolo[4,5-b]pyridine], the pIC50 in experiment [3] is 8.05; in experiment [4], 7.62.

As for `O=C(O)C1CCN(CCc2coc3cc(Oc4nc5ccccc5s4)ccc23)CC1` [Example 80, 1-{2-[6-(Benzothiazol-2-yloxy)-benzofuran-3-yl]-ethyl}-piperidine-4-carboxylic acid], the results for the pIC50 in experiment [3] and in experiment [4] were 7.32 and 6.46, respectively.

With `CC(=O)NC1CCN(Cc2coc3cc(Oc4nc5nccnc5s4)ccc23)CC1` [Example 253, N-{1-[6-(Thiazolo[4,5-b]pyrazin-2-yloxy)-benzofuran-3-ylmethyl]-piperidin-4-yl}-acetamide formate], the pIC50 in experiment [3] is 7.41; in experiment [4], 7.04.

In the case of `OC1CCN(Cc2coc3cc(Oc4nc5ncccc5s4)ccc23)CC1` [Example 268, 1-[6-(Thiazolo[4,5-b]pyridin-2-yloxy)-benzofuran-3-ylmethyl]-piperidin-4-ol], the pIC50 was 8.10 in experiment [3] and 6.82 in experiment [4].

In the case of `CCN(CC)C1CCN(Cc2coc3cc(Oc4nc5ncccc5s4)ccc23)C1` (centres unmarked) [Example 327, Diethyl-{1-[6-(thiazolo[4,5-b]pyridin-2-yloxy)-benzofuran-3-ylmethyl]-pyrrolidin-3-yl}-amine], the pIC50 is 7.54 in experiment [3] and 6.89 in experiment [4].

Take `O=C(C1CCC1)N1C[C@@H]2C[C@H]1CN2Cc1coc2cc(Oc3nc4ncccc4s3)ccc12` [Example 357, (1S,4S)-Cyclobutyl-{5-[6-(thiazolo[4,5-b]pyridin-2-yloxy)-benzofuran-3-ylmethyl]-2,5-diaza-bicyclo[2.2.1]hept-2-yl}-methanone]: the values for the pIC50 in experiment [3] and in experiment [4] were 8.15 and 6.66, respectively.

Regarding `CS(=O)(=O)NCCC1CCN(Cc2coc3cc(Oc4nc5ccccc5s4)ccc23)CC1` [Example 364, N-(2-{1-[6-(Benzothiazol-2-yloxy)-benzofuran-3-ylmethyl]-piperidin-4-yl}-ethyl)-methanesulfonamide], the results for the pIC50 in experiment [3] and in experiment [4] were 7.74 and 6.51, respectively.

In the case of `NC(=O)N[C@H]1C[C@H]2CC[C@@H](C1)N2Cc1coc2cc(Oc3nc4ncccc4s3)ccc12` [Example 175, meso-endo-{8-[6-(Thiazolo[4,5-b]pyridin-2-yloxy)-benzofuran-3-ylmethyl]-8-aza-bicyclo[3.2.1]oct-3-yl}-urea], the figures for the pIC50 in experiment [3] and in experiment [4] were 8.70 and 6.75, respectively.

Turning to `Clc1ccc2sc3c(c2c1)CN(Cc1c[nH]c2cc(Oc4nc5ncccc5s4)ccc12)CC3` [Example 36, 8-Chloro-2-[6-(thiazolo[4,5-b]pyridin-2-yloxy)-1H-indol-3-ylmethyl]-1,2,3,4-tetrahydro-benzo[4,5]thieno[3,2-c]pyridine formate], the pIC50 was 7.11 in experiment [3] and 6.37 in experiment [4].

For `CC(=O)N[C@H]1C[C@H]2CC[C@@H](C1)N2Cc1cc2cc(Oc3nc4ccccc4s3)ccc2o1` [Example 83, meso-endo-N-{8-[5-(Benzothiazol-2-yloxy)-benzofuran-2-ylmethyl]-8-aza-bicyclo[3.2.1]oct-3-yl}-acetamide formate], the pIC50 in experiment [3] is 7.15; in experiment [4], 6.92.
